Source: ChEMBL document CHEMBL1148201, “Penasulfate A, a new alpha-glucosidase inhibitor from a marine sponge Penares sp” (J Nat Prod, 2004)

Columns and labels:
[1] = Inhibition of yeast alpha-glucosidase G7256; design: species or system Saccharomyces cerevisiae
[2] = Inhibition of Saccharomyces cerevisiae recombinant alpha-glucosidase G0660

IC50 [1] | IC50 [2] | Structure (SMILES)
1.2 µg/mL | – | CCCC[C@H]1CCCCCCCCC[C@H](OS(=O)(=O)[O-])[C@H](OS(=O)(=O)[O-])[C@@H](OS(=O)(=O)[O-])CCCCCCCCCCCCC(=O)N2CCC[C@H]2C(=O)O1.[Na+].[Na+].[Na+] [PENAROLIDE SULFATE A1]
1.5 µg/mL | – | CCC[C@H]1CCCCCCCCC[C@H](OS(=O)(=O)[O-])[C@H](OS(=O)(=O)[O-])[C@@H](OS(=O)(=O)[O-])CCCCCCCCCCCCCC(=O)N2CCC[C@H]2C(=O)O1.[Na+].[Na+].[Na+] [PENAROLIDE SULFATE A2]
– | 3.5 µg/mL | CCCCCC[C@H](C)CCCCCC[C@H](OS(=O)(=O)[O-])[C@@H](CCCCCCCCCCCCC(=O)N1CCCC[C@@H]1C(=O)OC)OS(=O)(=O)[O-].[Na+].[Na+] [PENASULFATE A]
